These are literature values, as cited in US20240238452A1, “STAINING AGENT FOR GASTROINTESTINAL MUCOSA AND PREPARATION METHOD THEREFOR” (BEIJING COMPONT MEDICAL DEVICES CO., LTD., priority 2023, published 2024).

For data set [1] the following is noted: International Journal of Toxicology 2010.
For data set [2] the following is noted: EFSA report 2009.

Structures are written as SMILES.

On to `Cc1ccc(Nc2ccc(O)c3c2C(=O)c2ccccc2C3=O)c(S(=O)(=O)[O-])c1.[Na+]` [acid violet 43], for which the “safety: acute oral, short-term skin, subchronic skin, heredity and other aspects” value in data set [1] is reported as “no abnormal report”. Take `COc1cc(S(=O)(=O)[O-])c(C)cc1N=Nc1c(O)ccc2cc(S(=O)(=O)[O-])ccc12.[Na+].[Na+]` [allure red]: in data set [2], the “allowable daily intake (ADI)” value is listed as 7 mg/kg·bw/day. Consider `O=C1/C(=C2\Nc3ccc(S(=O)(=O)[O-])cc3C2=O)Nc2ccc(S(=O)(=O)[O-])cc21.[Na+].[Na+]` [indigo carmine, reference compound], for which the “allowable daily intake (ADI)” value in data set [2] is given as 5 mg/kg·bw/day.
